# From the Kinase Knowledgebase extract (Sharma et al. 2016)
# Target: MAPK14 (UniProt Q16539)
# Assay: Inhibition of MAPK14 Kinase Activity
# MAPK14, sequence (Q16539 whole entry, looked up): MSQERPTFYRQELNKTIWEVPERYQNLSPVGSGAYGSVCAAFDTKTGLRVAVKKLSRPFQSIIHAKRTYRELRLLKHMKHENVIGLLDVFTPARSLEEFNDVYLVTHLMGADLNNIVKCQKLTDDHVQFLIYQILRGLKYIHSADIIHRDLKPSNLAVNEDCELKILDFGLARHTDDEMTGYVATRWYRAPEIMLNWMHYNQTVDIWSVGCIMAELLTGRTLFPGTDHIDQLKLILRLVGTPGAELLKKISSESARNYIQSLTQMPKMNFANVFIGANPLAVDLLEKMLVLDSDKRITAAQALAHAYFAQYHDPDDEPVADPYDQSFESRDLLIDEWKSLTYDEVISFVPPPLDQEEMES
row,Compound,IC50 [µM]
1,CC(C)S(=O)(=O)n1c(N)nc2ccc(-c3c(C#N)cnn3-c3ccccc3)cc21,≤ 5
2,CC(C)S(=O)(=O)n1c(N)nc2ccc(-c3c(-c4ccccc4)ncn3Cc3ccncc3)cc21,≤ 5
3,COC(=O)CCn1cnc(-c2ccccc2)c1-c1ccc2nc(N)n(S(=O)(=O)C(C)C)c2c1,≤ 5
4,CC(C)S(=O)(=O)n1c(N)nc2ccc(-c3nc(-c4c(F)cccc4Cl)[nH]c3-c3ccc(F)cc3)cc21,≤ 5
5,CC(C)S(=O)(=O)n1c(N)nc2ccc(C3C(c4ccccc4)N=C4C=CC(Cl)=CN43)cc21 (centres undefined),≤ 5
6,CC(C)S(=O)(=O)n1c(N)nc2ccc(-c3nc(CC(C)(C)C)[nH]c3-c3ccc(F)cc3)cc21,≤ 5
7,CC(C)S(=O)(=O)n1c(N)nc2ccc(-c3c(-c4ccccc4)nc4n3CCCC4)cc21,≤ 5
8,CC(C)S(=O)(=O)n1c(N)nc2ccc(-c3nc(CN4CCOCC4)[nH]c3-c3ccccc3)cc21,≤ 5
9,CC(C)S(=O)(=O)n1c(N)nc2ccc(-c3nc(C4CCN(C(=O)OC(C)(C)C)CC4)[nH]c3-c3ccc(F)cc3)cc21,≤ 5
10,CC(C)S(=O)(=O)n1c(N)nc2ccc(-c3nc(CN4CCCCC4)[nH]c3-c3ccccc3)cc21,≤ 5
11,CC(C)S(=O)(=O)n1c(N)nc2ccc(-c3c(-c4ccccc4)ncn3C3CC3)cc21,≤ 5
12,CC(C)S(=O)(=O)n1c(N)nc2ccc(-c3c(-c4ccccc4)nc4ccccn34)cc21,≤ 5
13,CC(C)S(=O)(=O)n1c(N)nc2ccc(-c3nc(-c4cccc(OCCC5=CC=CNC=C5)c4)[nH]c3-c3ccccc3)cc21,≤ 5
14,CCc1ccc(-c2nc(-c3ccc4nc(N)n(S(=O)(=O)C(C)C)c4c3)c(-c3ccc(F)cc3)[nH]2)s1,≤ 5
15,CC(C)S(=O)(=O)n1c(N)nc2ccc(-c3c(-c4ccccc4)ncn3C3CC(C)(C)NC(C)(C)C3)cc21,≤ 5
16,CC(C)S(=O)(=O)n1c(N)nc2ccc(-c3c(-c4ccccc4F)nc(Br)n3C3CCCCC3)cc21,≤ 5
17,COc1ccc(Cn2c(CO)nc(-c3ccccc3)c2-c2ccc3nc(N)n(S(=O)(=O)C(C)C)c3c2)cc1,≤ 5
18,COc1ccc(Cn2cnc(-c3ccccc3)c2-c2ccc3nc(N)n(S(=O)(=O)C(C)C)c3c2)cc1,≤ 5
19,NCCc1nc2ccc(-c3c(-c4ccccc4)ncn3C3CCCCC3)cc2s1,≤ 5
20,Cc1ccccc1-c1[nH]c(-c2ccc(F)cc2)nc1-c1ccc2nc(N)n(S(=O)(=O)C(C)C)c2c1,≤ 5
21,CC(C)S(=O)(=O)n1c(N)nc2ccc(-c3c(-c4ccc(F)cc4F)ncn3C3CC3)cc21,≤ 5
22,CN(C)S(=O)(=O)n1c(N)nc2ccc(-c3nc(-c4c(F)cccc4F)[nH]c3-c3ccccc3)cc21,≤ 5
23,CC(C)S(=O)(=O)n1c(N)nc2ccc(-c3nc(-c4cccs4)[nH]c3-c3ccc(C(F)(F)F)cc3)cc21,≤ 5

row,Compound,IC50 [µM]
1,CC(C)S(=O)(=O)n1c(N)nc2ccc(-c3c(-c4ccccc4)ncn3C3CCC(N)CC3)cc21 (centres undefined),≤ 5
2,CC(C)S(=O)(=O)n1c(N)nc2ccc(-c3nc(C4CCN(C(=O)OCc5ccccc5)CC4)[nH]c3-c3ccccc3)cc21,≤ 5
3,CC(C)S(=O)(=O)n1c(N)nc2ccc(-c3nc(-c4ccccc4N4CCN(C)CC4)[nH]c3-c3ccccc3)cc21,≤ 5
4,COc1ccc(-c2nc(-c3ccc4nc(N)n(S(=O)(=O)C(C)C)c4c3)c(-c3ccccc3)[nH]2)cc1,≤ 5
5,CC(C)S(=O)(=O)n1c(N)nc2ccc(-c3c(-c4ccccc4)ncn3Cc3ccccn3)cc21,≤ 5
6,CC(C)S(=O)(=O)n1c(N)nc2ccc(-c3c(-c4ccccc4)ncn3C3CCN(C)CC3)cc21,≤ 5
7,CC(C)S(=O)(=O)n1c(N)nc2ccc(-c3c(-c4ccc(F)cc4)ncn3CC3CC3)cc21,≤ 5
8,CC(C)S(=O)(=O)n1c(N)nc2ccc(-c3c(-c4ccsc4)ncn3[C@H]3CC[C@H](O)CC3)cc21,≤ 5
9,CC(C)S(=O)(=O)n1c(N)nc2ccc(-c3nc(C=O)[nH]c3-c3ccccc3)cc21,≤ 5
10,CC(C)S(=O)(=O)n1c(N)nc2ccc(-c3nc(-c4ccc(OCCN(C)C)cc4)[nH]c3-c3ccccc3)cc21,≤ 5
11,Nc1nc2ccc(-c3nc(-c4c(F)cccc4F)[nH]c3-c3ccccc3)cc2n1S(=O)(=O)C1CCCC1,≤ 5
12,CC(C)S(=O)(=O)n1c(N)nc2ccc(-c3c(-c4ccc(F)cc4F)ncn3[C@H]3CC[C@H](O)CC3)cc21,≤ 5
13,COCCn1cnc(-c2ccccc2)c1-c1ccc2nc(N)n(S(=O)(=O)C(C)C)c2c1,≤ 5
14,CC(C)S(=O)(=O)n1c(N)nc2ccc(-c3nc[nH]c3-c3ccccc3F)cc21,≤ 5
15,CC(C)S(=O)(=O)n1c(N)nc2ccc(-c3nc(-c4cccc(Cl)c4)[nH]c3-c3ccccc3)cc21,≤ 5
16,CC(C)S(=O)(=O)n1c(N)nc2ccc(-c3c(-c4cccc(F)c4)ncn3[C@H]3CC[C@H](O)CC3)cc21,≤ 5
17,CC(C)S(=O)(=O)n1c(N)nc2ccc(-c3cc(C(C)(C)C)nn3-c3ccccc3)cc21,≤ 5
18,CC(C)S(=O)(=O)n1c(N)nc2ccc(-c3nc(-c4ccccc4SC(F)(F)F)[nH]c3-c3ccccc3)cc21,≤ 5
19,CC(C)S(=O)(=O)n1c(N)nc2ccc(-c3nn[nH]c3-c3ccccc3)cc21,≤ 5
20,CC(C)N1CCC(n2cnc(-c3ccccc3)c2-c2ccc3nc(N)n(S(=O)(=O)C(C)C)c3c2)CC1,≤ 5
21,CC(C)S(=O)(=O)n1c(N)nc2ccc(-c3nc(-c4ccc([N+](=O)[O-])cc4F)[nH]c3-c3ccccc3)cc21,≤ 5
22,Nc1ccccc1Cc1nc2ccc(-c3[nH]cnc3-c3ccccc3)cc2[nH]1,≤ 5
23,CC(=O)Nc1ccc(-c2nc(-c3ccc4nc(N)n(S(=O)(=O)C(C)C)c4c3)c(-c3ccccc3)[nH]2)cc1,≤ 5

# More lines, now with the values ahead:
row,IC50 [µM],Compound
1,≤ 5,CC(C)S(=O)(=O)n1c(N)nc2ccc(-c3nc(-c4ccc(OC(F)(F)F)cc4)[nH]c3-c3ccccc3)cc21
2,≤ 5,CC(C)S(=O)(=O)n1c(N)nc2ccc(-c3c(-c4ccccc4)ncn3-c3ccc([N+](=O)[O-])cc3)cc21
3,≤ 5,CC(C)CN1CCC(c2nc(-c3ccc4nc(N)n(S(=O)(=O)C(C)C)c4c3)c(-c3ccccc3)[nH]2)CC1
4,≤ 5,CC(C)S(=O)(=O)n1c(N)nc2ccc(-c3c(-c4ccccc4)ncn3C3CCOCC3)cc21
5,≤ 5,CC(C)S(=O)(=O)n1c(N)nc2ccc(-c3nc(C4CCCCC4)[nH]c3-c3ccccc3)cc21
6,≤ 5,CC(C)S(=O)(=O)n1c(N)nc2ccc(-c3c(-c4ccccc4)ncn3C3CCC(NC(=O)OC(C)(C)C)CC3)cc21 (centres undefined)
7,≤ 5,CC(C)S(=O)(=O)n1c(N)nc2ccc(-c3nc(-c4ccc(N(C)C)cc4)[nH]c3-c3ccccc3)cc21
8,≤ 5,CC(C)S(=O)(=O)n1c(N)nc2ccc(-c3c(-c4ccc(F)cc4)ncn3[C@@H](C)CO)cc21
9,≤ 5,CC(C)S(=O)(=O)n1c(N)nc2ccc(-c3c(-c4ccc(F)cc4)ncn3CCN3CCOCC3)cc21
10,≤ 5,CC(C)S(=O)(=O)n1c(N)nc2ccc(-c3c(-c4ccccc4)nc(-c4c(F)cccc4F)n3C)cc21
11,≤ 5,CC(C)S(=O)(=O)n1c(N)nc2ccc(C3C(c4ccccc4)N=C4Sc5ccccc5N43)cc21 (centres undefined)
12,≤ 5,CC(C)S(=O)(=O)n1c(N)nc2ccc(-c3nc[nH]c3-c3ccc(F)cc3F)cc21
13,≤ 5,CC(C)S(=O)(=O)n1c(Cc2ccccc2N)nc2ccc(-c3[nH]cnc3-c3ccccc3)cc21
14,≤ 5,CC(C)S(=O)(=O)n1c(N)nc2ccc(-c3c(-c4cccc(F)c4)ncn3Cc3cccnc3)cc21
15,≤ 5,Cc1nc(-c2ccccc2)c(-c2ccc3nc(N)n(S(=O)(=O)C(C)C)c3c2)s1
16,≤ 5,CC(C)S(=O)(=O)n1c(N)nc2ccc(-c3nc(-c4ccsc4)[nH]c3-c3ccc(F)cc3)cc21
17,≤ 5,CC(C)S(=O)(=O)n1c(N)nc2ccc(-c3nc(-c4nccs4)[nH]c3-c3ccccc3)cc21
18,≤ 5,CC(C)S(=O)(=O)n1c(N)nc2ccc(-c3nc(-c4cccs4)[nH]c3-c3ccc(F)cc3)cc21
19,≤ 5,CC(C)c1nc(-c2ccc3nc(N)n(S(=O)(=O)C(C)C)c3c2)c(-c2ccc(F)cc2)[nH]1

row,IC50 [µM],Compound
1,≤ 5,CC(C)S(=O)(=O)n1c(N)nc2ccc(-c3c(-c4ccc(F)cc4)ncn3C3CCN(C)CC3)cc21
2,≤ 5,CC(C)S(=O)(=O)n1c(N)nc2ccc(-c3c(-c4ccc(F)cc4)ncn3C)cc21
3,≤ 5,CC(C)S(=O)(=O)n1c(N)nc2ccc(-c3nc(-c4ccccc4OC(F)(F)F)[nH]c3-c3ccccc3)cc21
4,≤ 5,CC(C)S(=O)(=O)n1c(N)nc2ccc(-c3nc(-c4ccccc4C(F)(F)F)[nH]c3-c3ccccc3)cc21
5,≤ 5,CCc1ccc(-c2nc(-c3ccc4nc(N)n(S(=O)(=O)C(C)C)c4c3)c(-c3ccccc3)[nH]2)s1
6,≤ 5,CC(C)S(=O)(=O)n1c(N)nc2ccc(-c3nc[nH]c3-c3ccccc3)cc21
7,≤ 5,CC1=CC2=NC(c3ccccc3)C(c3ccc4nc(N)n(S(=O)(=O)C(C)C)c4c3)N2C=C1 (centres undefined)
8,≤ 5,CC(C)c1nc(-c2ccc3nc(N)n(S(=O)(=O)C(C)C)c3c2)c(-c2ccccc2)[nH]1
9,≤ 5,CC(C)S(=O)(=O)n1c(N)nc2ccc(-c3nc(C4CCN(CCO)CC4)[nH]c3-c3ccccc3)cc21
10,≤ 5,CC(C)S(=O)(=O)n1c(N)nc2ccc(-c3nc(C4CCN(Cc5ccccc5)CC4)[nH]c3-c3ccccc3)cc21
11,≤ 5,Nc1nc2ccc(-c3nc(-c4cccs4)[nH]c3-c3ccccc3)cc2[nH]1
12,≤ 5,CC(C)S(=O)(=O)n1c(N)nc2ccc(-c3c(-c4ccccc4)ncn3-c3ccc(N)cc3)cc21
13,≤ 5,CC(C)S(=O)(=O)n1c(N)nc2ccc(-c3nc(-c4ccc(S(C)(=O)=O)cc4)[nH]c3-c3ccccc3)cc21
14,≤ 5,CC(C)S(=O)(=O)n1c(N)nc2ccc(-c3c(-c4ccccc4)ncn3C3CCN(C(=O)OC(C)(C)C)CC3)cc21
15,≤ 5,CC(C)S(=O)(=O)n1c(N)nc2ccc(-c3nc(-c4c(Cl)cccc4Cl)[nH]c3-c3ccc(F)cc3)cc21
16,≤ 5,CC(C)S(=O)(=O)n1c(N)nc2ccc(-c3c(-c4ccccc4F)nc(-c4c[nH]nn4)n3C3CC3)cc21
17,≤ 5,CC(C)S(=O)(=O)n1c(N)nc2ccc(-c3nc(C4CCN(CCN(C)C)CC4)[nH]c3-c3ccccc3)cc21
18,≤ 5,CC(C)S(=O)(=O)n1c(N)nc2ccc(-c3c(-c4ccc(F)cc4)ncn3C3CC3)cc21
19,≤ 5,CC(C)S(=O)(=O)n1c(N)nc2ccc(-c3nc(-c4ccc(F)cc4F)[nH]c3-c3cc(F)cc(F)c3)cc21
